Reference: PubChem BioAssay (NCI)
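Cells were grown in 96-well plates and exposed to each compound for 48 hours at five concentrations; endpoints were interpolated linearly between bracketing concentrations, or set to the highest concentration if not reached. Abbreviation: GI50, concentration required for 50% inhibition of growth. At the TGI there is no net growth.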

How the values were obtained:
Experiment in all cases: growth of human tumour cells (NCI), 48 h
[1] = test system: EKVX NSCLC
[2] = test system: HOP-92 NSCLC
[3] = test system: UACC-62 melanoma
[4] = test system: IGROV1 ovarian
[5] = test system: SK-MEL-5 melanoma
[6] = test system: HT29 colon
[7] = test system: MOLT-4 leukemia
[8] = test system: SF-295 CNS
[9] = test system: CCRF-CEM leukemia
[10] = test system: SW-620 colon
[11] = test system: LOX IMVI melanoma
[12] = test system: NCI-H226 lung
[13] = test system: NCI-H522 lung
[14] = test system: HCC-2998 colon
[15] = test system: HCT-15 colon
[16] = test system: RPMI-8226 leukemia

Row | SMILES | TGI [1] | TGI [2] | TGI [3] | TGI [4] | TGI [5] | TGI [6] | GI50 [7] | TGI [7] | TGI [8] | TGI [9] | TGI [10] | GI50 [11] | TGI [11] | GI50 [12] | TGI [12] | TGI [13] | GI50 [14] | TGI [14] | TGI [15] | TGI [16]
1 | CC(=O)c1cccc(Nc2nc3ccc(Cl)cc3c3[nH]c4ccccc4c23)c1 | 14.9 µM | 13.4 µM | 24.4 µM | > 48.6 µM | 17 µM | 48.5 µM | 6.41 µM | > 100 µM | 11.1 µM | > 100 µM | > 85.6 µM | 5.46 µM | > 100 µM | 10.4 µM | 67.1 µM | 16.4 µM | 14.2 µM | > 100 µM | > 100 µM | > 100 µM
2 | O=[N+]([O-])c1cc2c(c([N+](=O)[O-])c1)NCc1ccccc1O2 | > 100 µM | > 100 µM | > 100 µM | > 100 µM | > 100 µM | > 100 µM |  | > 100 µM | > 100 µM | > 100 µM | > 100 µM |  | > 100 µM |  | > 100 µM | > 100 µM |  | > 100 µM | > 100 µM | > 100 µM
3 | O=C(Cc1ccc(Cl)cc1)Nc1ccc2oc(-c3ccccc3)nc2c1 | > 100 µM | > 100 µM | > 100 µM | > 100 µM | > 100 µM | > 100 µM |  | > 100 µM | > 100 µM | > 100 µM | > 100 µM |  | > 100 µM |  | > 100 µM | > 100 µM |  | > 100 µM | > 100 µM | > 100 µM
4 | CC1=C(C)C1[N+](=O)[O-] | > 100 µM | > 100 µM | > 100 µM | > 100 µM | > 100 µM | > 100 µM |  | > 100 µM | > 100 µM | > 100 µM | > 100 µM |  | > 100 µM |  | > 100 µM | > 100 µM |  | > 100 µM | > 100 µM | > 100 µM
5 | C=CCN1C(=O)/C(=C/c2ccc(C)cc2)NC1=S | 97.1 µM | > 100 µM | > 100 µM | > 100 µM | > 100 µM | > 100 µM |  | > 100 µM | > 100 µM | > 100 µM | > 100 µM |  | > 100 µM |  | > 100 µM | > 100 µM |  | > 100 µM | > 100 µM | > 100 µM
6 | COc1ccc(N2C(=O)C(C)SC2c2cc3cc(Br)ccc3nc2Cl)cc1 (stereo not given) | 98.5 µM | 82.9 µM | > 100 µM | > 100 µM | > 100 µM | > 100 µM |  | 79.2 µM | > 100 µM | > 100 µM | > 100 µM |  | > 100 µM |  | > 100 µM | 78.6 µM |  | > 100 µM | > 100 µM | > 100 µM
7 | Cc1ccc(C)n1-c1ccccc1C1C=CN(C(=O)OC(C)(C)C)C=C1 | 60.8 µM | > 100 µM | 77.9 µM | > 100 µM | > 100 µM | 27.7 µM |  | 68.7 µM | > 100 µM | > 100 µM | 41.7 µM |  | 37.4 µM |  | 31.5 µM | 36.2 µM |  | 34 µM | 45.7 µM | > 100 µM
8 | Nc1nc2n[nH]nc2c(=O)[nH]1 | > 100 µM | 38.5 µM | 2.62 µM | > 100 µM | 13.8 µM | > 100 µM |  | 4.35 µM | > 33.1 µM | > 100 µM | > 100 µM |  | 6.88 µM |  | 57.5 µM | 40.9 µM |  | > 100 µM | > 100 µM | 15.7 µM
9 | COc1ccc(NC(=O)/C(=N/NC(N)=S)C2C(=O)NC(=S)NC2=O)c(OC)c1 | > 100 µM | > 100 µM | > 100 µM | > 100 µM | > 100 µM | > 100 µM |  | > 100 µM | > 100 µM | > 100 µM | > 100 µM |  | > 100 µM |  | > 100 µM | > 100 µM |  | > 100 µM | > 100 µM | > 100 µM
10 | COc1ccc(C2=NN(C(N)=S)C(c3ccccc3)C2)cc1 (stereo not given) | > 100 µM | > 100 µM | > 100 µM | > 100 µM | 32.3 µM | > 100 µM |  | > 100 µM | 96.2 µM | > 100 µM | > 100 µM |  | > 100 µM |  | > 100 µM | 84.1 µM |  | > 100 µM | > 100 µM | 74.8 µM
11 | CN(C)CC1CCCC(CN(C)C)C1=NOC(=O)c1ccccc1 (stereo not given) | > 100 µM | > 100 µM | > 100 µM | > 100 µM | > 100 µM | > 100 µM |  | > 100 µM | > 100 µM | > 100 µM | > 100 µM |  | > 100 µM |  | > 100 µM | > 100 µM |  | > 100 µM | > 100 µM | > 100 µM
12 | CC1(C)C/C(=N/O)c2c(nc3ccc4ccccc4c3c2-c2ccc(Cl)cc2)C1 | 29.7 µM | 42.2 µM | 37.1 µM | 31.6 µM | > 100 µM | 33.5 µM |  | 52.6 µM | 22.8 µM | 27.6 µM | 77.9 µM |  | 26.6 µM |  | 46.3 µM | 28.6 µM |  | 43.8 µM | 41.6 µM | > 100 µM
13 | NC(=S)N/N=C1/CCCC2CCCC[C@@H]12 (stereo not given in full) | > 100 µM | > 100 µM | > 100 µM | > 100 µM | > 100 µM | > 100 µM |  | > 100 µM | > 100 µM | > 100 µM | > 100 µM |  | > 100 µM |  | > 100 µM | > 100 µM |  | > 100 µM | > 100 µM | > 100 µM
14 | CC(O)c1ccc[n+](Cc2ccccc2)c1 (stereo not given) | > 400 µM | > 400 µM | > 400 µM | > 400 µM | > 400 µM | > 400 µM |  | > 400 µM | > 400 µM | > 400 µM | > 400 µM |  | > 400 µM |  | > 400 µM | > 400 µM |  | > 400 µM | > 400 µM | > 400 µM
15 | CN(C)CCCNc1c(C#N)[n+]([O-])c2cc(Cl)ccc2[n+]1[O-] | 22.5 µM | 25.5 µM | 17.4 µM | 10.5 µM | 10.9 µM | > 40 µM |  | 20.2 µM | > 49.1 µM | 42 µM | 37.1 µM |  | 56.9 µM |  | 48.5 µM | 14.1 µM |  | 18.7 µM | 18.6 µM | 26.4 µM
16 | OC1[C@H](O)CN(OCc2ccccc2)C[C@@H]1O (stereo not given in full) | > 100 µM | > 100 µM | > 100 µM | > 100 µM | > 100 µM | > 100 µM |  | > 100 µM | > 100 µM | > 100 µM | > 100 µM |  | > 100 µM |  | > 100 µM | > 100 µM |  | > 100 µM | > 100 µM | > 100 µM
17 | CCN(C(C)=O)c1cnc(/C=N/NC(N)=S)c2ccccc12 | > 100 µM | > 100 µM | 11 µM | > 100 µM | > 67.1 µM | > 100 µM |  | > 31.5 µM | > 68.9 µM | > 100 µM | > 100 µM |  | 10.1 µM |  | > 100 µM | > 36.2 µM |  | > 100 µM | > 100 µM | > 100 µM
18 | O=C1CCCC1C(O)(C(F)(F)F)C(F)(F)F (stereo not given) | > 100 µM | > 100 µM | > 100 µM | > 100 µM | > 100 µM | > 100 µM |  | > 100 µM | > 100 µM | > 100 µM | > 100 µM |  | > 100 µM |  | > 100 µM | > 100 µM |  | > 100 µM | > 100 µM | > 100 µM
19 | CCOc1cc2c(cc1O)CC[C@@H]1[C@@H]2CC[C@]2(C)C(N)CC[C@@H]12 (stereo not given in full) | 20.9 µM | 27 µM | 16.8 µM | 12.6 µM | 16.7 µM | 6.4 µM |  | 24.7 µM | 12.5 µM | 18.2 µM | 14.3 µM |  | 10.9 µM |  | 10.4 µM | 11.9 µM |  | 5.44 µM | 13.8 µM | 10 µM
20 | O=C(NNCc1ccco1)c1cc2ccccc2[nH]1 | > 100 µM | > 96.4 µM | > 100 µM | > 100 µM | > 100 µM | > 100 µM |  | > 100 µM | > 100 µM | > 100 µM | > 100 µM |  | > 100 µM |  | > 100 µM | > 100 µM |  | > 90.1 µM | > 100 µM | > 100 µM
21 | CCOC(=O)[C@@H]1CCN2CN(c3ccc(OC)cc3)N=C(c3ccccc3)[C@@]12c1ccccc1 | > 100 µM | 27.9 µM | 35 µM | 72.1 µM | 30.5 µM | 72.4 µM |  | > 100 µM | 77.1 µM | > 100 µM | > 100 µM |  | 29.6 µM |  | 38.9 µM | 49.5 µM |  | 67.1 µM | 80.6 µM | 82.6 µM
22 | O=P1(c2ccccc2)C(c2ccccc2)=CC=C1c1ccccc1 | > 100 µM | 51.1 µM | > 100 µM | > 100 µM | 28.4 µM | 50.2 µM |  | 44 µM | > 100 µM | 62.7 µM | > 100 µM |  | 37.8 µM |  | > 100 µM | 65.2 µM |  | 64.8 µM | 77.3 µM | 19.4 µM
23 | COc1ccc2c(c1)-c1[nH]c3ccc(OC)cc3c1CC2 | 20.8 µM | 36.2 µM | 28.6 µM | 26.8 µM | 30.9 µM | 24.9 µM |  | 54.4 µM | 26.3 µM | 80.6 µM | 49.4 µM |  | 29.8 µM |  | 24.3 µM | 17.6 µM |  | 31.4 µM | 24.8 µM | 48.2 µM
24 | Cc1ccc2c(c1)CC1(Cc3c(C)cccc3C1=O)C2=O (stereo not given) | > 100 µM | > 100 µM | > 100 µM | > 100 µM | > 100 µM | > 100 µM |  | > 100 µM | > 100 µM | > 100 µM | > 100 µM |  | > 100 µM |  | > 100 µM | > 100 µM |  | > 100 µM | > 100 µM | > 100 µM
25 | N#Cc1ccc(C(=O)/C=C/c2ccc(O)c(O)c2)cc1 | 31.8 µM | 29.6 µM | 32.5 µM | 27 µM | 28.5 µM | 31.2 µM |  | 37.6 µM | 33.9 µM | 14.3 µM | 26.2 µM |  | 26.3 µM |  | 62.7 µM | 7.54 µM |  | 28.2 µM | 30.1 µM | 25.2 µM
26 | c1ccc2c(c1)cc1c3[nH]c4ccccc4c3ccn21 | > 10 µM | > 10 µM | > 10 µM | > 10 µM | > 10 µM | > 10 µM |  | > 10 µM | > 10 µM | > 10 µM | > 10 µM |  | > 10 µM |  | > 10 µM | > 10 µM |  | > 10 µM | > 10 µM | > 10 µM
